Consider 18 compounds from patent publication US5182289A, “Heterobicyclic compounds having antiinflammatory activity” (Schering Corporation, priority 1990, dated 1993).

One experiment deals with T1, 5-lipoxygenase (Homo sapiens, UniProt P09917).
T1 construct: Human polymorphonuclear (PMN) leukocytes (neutrophils) are obtained from normal healthy volunteers; endogenous in cells; host or cells: human polymorphonuclear leukocytes (neutrophils) from blood of healthy volunteers
T1 sequence (P09917 1-674): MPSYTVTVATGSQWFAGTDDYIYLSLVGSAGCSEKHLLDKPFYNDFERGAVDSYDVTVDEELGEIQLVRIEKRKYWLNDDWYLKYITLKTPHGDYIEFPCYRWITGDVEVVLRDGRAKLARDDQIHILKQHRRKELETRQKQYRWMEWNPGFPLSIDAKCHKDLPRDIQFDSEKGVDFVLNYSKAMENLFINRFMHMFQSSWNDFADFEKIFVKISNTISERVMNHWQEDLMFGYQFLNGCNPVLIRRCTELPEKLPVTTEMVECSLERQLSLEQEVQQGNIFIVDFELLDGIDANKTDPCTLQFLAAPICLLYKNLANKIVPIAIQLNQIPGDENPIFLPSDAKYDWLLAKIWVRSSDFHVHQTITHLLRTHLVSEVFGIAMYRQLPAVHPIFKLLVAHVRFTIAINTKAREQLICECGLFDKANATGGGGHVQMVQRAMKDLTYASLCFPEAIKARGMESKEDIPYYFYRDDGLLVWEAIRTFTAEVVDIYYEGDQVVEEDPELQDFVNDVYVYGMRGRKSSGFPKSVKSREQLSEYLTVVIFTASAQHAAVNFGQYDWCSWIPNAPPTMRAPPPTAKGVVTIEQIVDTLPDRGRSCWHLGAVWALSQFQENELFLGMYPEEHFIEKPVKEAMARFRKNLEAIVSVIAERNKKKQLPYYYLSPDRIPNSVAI
The experiment in a line: 5-Lipoxygenase Assay in human polymorphonuclear (PMN) leukocytes, 5-HETE production. Format: cell-based. The settings on record: 15 μM. The method, then:
Human polymorphonuclear (PMN) leukocytes (neutrophils) are obtained from normal healthy volunteers by venipuncture and collected with heparin anticoagulant. Neutrophils are isolated by Dextran/Ficol sedimentation as described (Billah et al, J. Biol. Chem. 260, 6899-6906 (1985)). In brief, 30 ml of blood is mixed with 5 ml of dextran (Sigma) solution and kept at 37° C. for 30 min. The upper white cellrich layer is removed and 10 ml is layered on 9 ml of Ficol-Paque solution (Pharmacia) and centrifuged at 280×g for 10 min. at 5° C. The supernatant is removed and the neutrophil pellet is resuspended in HEPES buffer containing 25 mM N-2-hydroxyethylpiperazine-N^1 -2 ethanesulfonic acid(HEPES), 125 mM NaCl, 2.5 mM KCL, 0.7 mM MgCl2, 0.5 mM and 10 mM glucose at pH 7.4. The red cells in the suspension are lysed by hypotonic shock. The neutrophils are washed by centrifugation in HEPES buffer two times and finally resuspended at a concentration of 20×10^6 cells/ml in the presence of 1 mM CaCl2.
Neutrophils (0.2 ml of suspension) are preincubated with dimethylsulfoxide (DMSO) vehicle with or without test compound (1 ul) for 4 minutes then incubated for 5 minutes with ^14 C-arachidonic acid (Amersham, 59 Ci/mole) at a 9 uM final concentration, and the calcium ionophore A23187 (Calbiochem) at a 1 uM final concentration. These stimulants are added in 10 ul of water:ethanol (9:1). The reaction is stopped by addition of methanol (0.4 ml), and cellular debris is removed by centrifugation. Aliquots (100 ul) of the incubations are run on a Waters two pump high performance liquid chromatography (HPLC) system fitted with a DuPont Zorbax ODS, 5 u, 4×80 […] Reliance Cartridge column and C18 "Guard Pak". The column is initially eluted at 2 ml/min with 80 percent of the mixture water:methanol:acetic acid (46:54:0.08) containing 1 mM EDTA adjusted to pH 6.0 with ammonium hydroxide (Pump A) and 20% methanol (Pump B). At 10 minutes, a linear gradient is established. to reach 100 percent methanol (Pump B) at 27 minutes. Between 27 and 28 minutes, methanol is exchanged for the initial eluting solvent and by 35 minutes the column is reequilibrated for the next sample. The effluent is analyzed by a continuous flow radioactivity monitor (model ROMONA-D) interfaced with a Hewlett Packard Lab Automation System for quantitation of radioactive products. This includes the major 5-lipoxygenase product, 5-hydroxyeicosatetraenoic acid (5-HETE) which elutes at 20 minutes. The results with and without test compound are used to calculate percent inhibition of 5-HETE production.
In turn, `O=C1C(Sc2ccccc2)c2cccnc2N1c1cccc(C(F)(F)F)c1` (centres unmarked) [Compound 12, 1,3-dihydro-3-(phenylthio)-1-(3-trifluoromethylphenyl)-2H-pyrrolo[2,3-b]pyridin-2-one] had an inhibition at 15 µM of 79%. The compound `CN1C(=O)C(S(=O)(=O)c2ccccc2)c2cccnc21` (centres unmarked) [Compound 31, 1,3-dihydro-1-methyl-3-(phenylsulfonyl)-2H-pyrrolo[2,3-b]pyridin-2-one] registered an inhibition at 15 µM of 10%. The compound `O=C1C(SCCO)c2cccnc2N1c1ccccc1` (centres unmarked) [Compound 25, 1,3-dihydro-3-(2-hydroxyethylthio)-1-phenyl-2H-pyrrolo[2,3-b]pyridin-2-one] displayed an inhibition at 15 µM of 8%.

Compound `CN1C(=O)C([S+]([O-])c2ccccc2)c2cccnc21` (centres unmarked) [Compound 24, 1,3-dihydro-1-methyl-3-(phenylsulfinyl)-2H-pyrrolo[2,3-b]pyridin-2-one] gave an inhibition at 15 µM of 24%. On the same count and under the same terms, the figure for `CC(=O)C1(SCCO)C(=O)N(c2ccccc2)c2ncccc21` (centres unmarked) [Compound 29] is 56%; for `CSC1(C)C(=O)N(c2ccccc2)c2ncccc21` (centres unmarked) [Compound 32, 1,3-dihydro-3-methyl-3-(methylthio)-1-phenyl--2H-pyrrolo[2,3-b]pyridin-2-one] it is 21%; for `CC(=O)OCCSC1C(=O)N(c2ccccc2)c2ncccc21` (centres unmarked) [Compound 30, 1,3-dihydro-3-[2-(acetoxy)-ethylthio]-1-phenyl-2H-pyrrolo[2,3-b]pyridin-2-one] it is 26%. The same measure, in the same setting: the result for `COc1ccc(SC2C(=O)N(c3ccccc3)c3ncccc32)cc1` (centres unmarked) [Compound 21, 1,3-dihydro-3-(4-methoxyphenylthio)-1-phenyl-2H-pyrrolo[2,3-b]pyridin-2-one] reads 61%; that for `O=C1C(Sc2ccccc2)c2cccnc2N1Cc1ccccc1` (centres unmarked) [Compound 27, 1,3-dihydro-1-(phenylmethyl)-3-(phenylthio)-2H-pyrrolo[2,3-b]pyridin-2-one], 16%.

The experiment is the same for the next values; noted with them: 50 μM.
`CC(C)c1ccc(N2C(=O)C(Sc3ccccc3)c3cccnc32)cc1` (centres unmarked) [Compound 15, 1,3-dihydro-1-(4-(1-methylethyl)-phenyl)-3-(phenylthio)-2H-pyrrolo[2,3-b]pyridin-2-one] had an inhibition at 50 µM of 84%.

The subject of the next experiment is Reversed Passive Arthus Reaction (RPAR) in the pleural cavity. The experiment in a line: Reversed Passive Arthus Reaction (RPAR) in the pleural cavity: cells and fluid. Format: in vivo, male rats. The settings on record: Rattus norvegicus, 4 h; dose 25 mpk; read-out: RPAR-Pleural Cavity % Inhibition cells. The method, then:
Reversed Passive Arthus Reaction (RPAR) Assay
Groups of 4 male rats were injected in the penile vein with antigen (1 mg BSA in 0.2 mL of saline per rat) and 0.5 hour later injected in the pleural cavity with antibody (1.0 mg antibody protein in the IgG fraction of rabbit anti-BSA in 0.2 mL). […] After 4 hours the animals were killed with CO2, and the pleural cavities were opened and the exudate drained into a graduated conical glass centrifuge tube containing indomethacin (1.8 ug) and nordihydroguaiaretic acid (NDGA) (15 ug) to block ex vivo metabolite synthesis. The volume of the exudate was measured. The cavity was then washed out with saline-EDTA to achieve a final volume of 5.0 mL. The number of cells were determined in a Colulter Counter. The cells were spun-down (1000×g) and the exudate supernatant was added to 4 volumes of 95% ethanol and samples were kept on ice for 30 minutes. After removal of the protein precipitate (2,500×g) the ethanol extract of the exudate was dried under N2 and then stored at -20° C. For radioimmunoassay (RIA) analysis the samples were redissolved in water to a volume of 1 mL per rat. Utilizing internally spiked samples, recovery of TXB2 (tritiated thromboxane B2) and LTE4 (tritiated leukotriene-E4) from exudates was determined to be 84±2% (SEM) and 89±2% (N=4), respectively. Exudate samples were directly assayed in duplicate with the commercial ^3 H-TXB2 RIA kit from New England Nuclear and the ^3 H-LTC4 /D4 /E4 kit from Amersham. The assay was validated using reversed-phase HPLC analysis of LTs in the standard procedure described by M. W. Musch, R. W. Bryant, C. Coscollaela, R. F. Myers and M. I. Siegel, Prostaglandins, Vol. 29, pp 405-430 (1985). Samples of ethanol exudate extract were "spiked" with ^3 H-LTs to follow HPLC purification and recovery.
`CC1(F)C(=O)N(c2ccccc2)c2ncccc21` (centres unmarked) [Compound 4, 1,3-dihydro-3-fluoro-3-methyl-1-phenyl-2H-pyrrolo[2,3-b]pyridin-2-one]: the inhibition in vivo at 25 mg/kg is 50%.

Take `CC1(C)C(=S)N(c2ccccc2)c2ncccc21` [Compound 7, 1,3-dihydro-3,3-dimethyl-1-phenyl-2H-pyrrolo[2,3-b]pyridin-2-thione]: the inhibition in vivo at 25 mg/kg was determined as 35%. Consider `CSc1ccc(N2C(=O)C(C)(C)c3cccnc32)cc1` [Compound 10, 1,3-dihydro-3,3-dimethyl-1-[4-(methylthio)phenyl]-2H-pyrrolo[2,3-b]pyridin-2-one], for which the inhibition in vivo at 25 mg/kg amounted to 29%.

Staying with this experiment, now noted: Rattus norvegicus, 4 h; dose 25 mpk; read-out: RPAR-Pleural Cavity % Inhibition fluid.
For the compound `CC1(F)C(=O)N(c2ccccc2)c2ncccc21` (centres unmarked) [Compound 4, 1,3-dihydro-3-fluoro-3-methyl-1-phenyl-2H-pyrrolo[2,3-b]pyridin-2-one], the inhibition in vivo at 25 mg/kg was 35%.

Consider `CC1(C)C(=S)N(c2ccccc2)c2ncccc21` [Compound 7, 1,3-dihydro-3,3-dimethyl-1-phenyl-2H-pyrrolo[2,3-b]pyridin-2-thione], for which the inhibition in vivo at 25 mg/kg was 33%. Same read-out and setting: the result for `CSc1ccc(N2C(=O)C(C)(C)c3cccnc32)cc1` [Compound 10, 1,3-dihydro-3,3-dimethyl-1-[4-(methylthio)phenyl]-2H-pyrrolo[2,3-b]pyridin-2-one] reads 37%.

Staying with this experiment, now noted: dose 25 mpk; Table 3A, formula (IIi).
On to `O=C(O)Cc1cccnc1Nc1ccc(Cl)cc1` [Compound 48, sodium 2-(4-chlorophenylamino)-3-pyridine acetate], for which the “RPAR-Pleural Cavity Percent Inhibition cells” value is on record as 0% and the “RPAR-Pleural Cavity Percent Inhibition fluid” value is 0%. Regarding `O=C(O)Cc1cccnc1Nc1cccc(C(F)(F)F)c1` [Compound 45, 2-(3-trifluoromethylphenylamino)-3-pyridine acetic acid], the “RPAR-Pleural Cavity Percent Inhibition cells” value stood at 22% and the “RPAR-Pleural Cavity Percent Inhibition fluid” value turned out to be 14%. As for `CC(C(=O)O)c1cccnc1Nc1ccc(Cl)cc1` (stereo not drawn) [Compound 49, sodium 2-(4-chlorophenylamino)-α-methyl-3-pyridine acetate], the “RPAR-Pleural Cavity Percent Inhibition cells” value is recorded as 67% and the “RPAR-Pleural Cavity Percent Inhibition fluid” value is 54%. On to `CC(C)(C(=O)O)c1cccnc1Nc1ccc(Cl)cc1` [Compound 46, sodium 2-(4-chlorophenylamino)-α,α-dimethyl-3-pyridine acetate], for which the “RPAR-Pleural Cavity Percent Inhibition cells” value is 62% and the “RPAR-Pleural Cavity Percent Inhibition fluid” value is 71%. With `O=C(O)Cc1cccnc1Nc1ccc(Cl)c(Cl)c1` [Compound 47, sodium 2-(3,4-dichlorophenylamino)-3-pyridine acetate], the “RPAR-Pleural Cavity Percent Inhibition cells” value is 16% and the “RPAR-Pleural Cavity Percent Inhibition fluid” value came out at 19%.

By inhibition is commonly meant the drop in the measured response relative to a control, in per cent. The low end stands for a weak effect, the high end for a strong effect.
